Here are results for 49 molecules from the Deep4Chem optical property database.

A short description of this data set: solvent given as SMILES.

Molecules are shown by their SMILES.

Take `CC1(C)C(/C=C/C2=C(c3ccc(C(=O)O)cc3)C(=C/C=C3/N(CCCCS(=O)(=O)[O-])c4ccccc4C3(C)C)/CC2)=[N+](CCCCS(=O)(=O)[O-])c2ccccc21`: the fluorescence lifetime reads like this: (in CC(C)=O) 1.13 ns; (in CCO) 0.87 ns; (in CO) 0.83 ns; (in CS(C)=O) 1.11 ns; (in ClC(Cl)Cl) 1.25 ns; (in ClCCl) 1.17 ns. This molecule came in with a fluorescence lifetime (in O) of 0.36 ns.
The molecule `CCC1(CC)c2cc(B(c3c(C)cc(C)cc3C)c3c(C)cc(C)cc3C)ccc2-c2c1c1c(c3c2C(CC)(CC)c2cc(N(c4ccccc4)c4ccccc4)ccc2-3)C(CC)(CC)c2cc(B(c3c(C)cc(C)cc3C)c3c(C)cc(C)cc3C)ccc2-1` returned a fluorescence lifetime (in C1CCOC1) of 18.1 ns.
For the molecule `CC(=O)Nc1ccc2c(c1)c(=O)c1ccccc1n2CCCCCC(=O)O`, the fluorescence lifetime (in O) is 17.1 ns.
Take `N#C/C(=C\c1ccncc1)c1nc(-c2ccc(Cl)cc2)cs1`: under “in CC#N”, the fluorescence lifetime turned out to be 4.24 ns.
`c1ccc2c(-n3c4ccccc4c4ccccc43)cccc2c1`: the fluorescence lifetime by setting is: (in C1CCCCC1) 4.9 ns; (in CCOC(C)=O) 4.9 ns; (in CO) 5.1 ns.
`CCCN1/C(=C\c2c(-c3ccc(N(C)C)cc3)c(=O)c2=O)C=Cc2ccccc21`: the fluorescence lifetime by setting is: (in C1CCCCC1) 1.01 ns; (in Cc1ccccc1) 2.46 ns; (in ClCCl) 0.09 ns.
On to `CN(C)c1ccc2c(c1)C(=O)c1ccccc1-2`, for which the fluorescence lifetime runs as follows: (in C1CCCCC1) 3.3 ns; (in c1ccccc1) 0.79 ns.
For the molecule `CCCn1c2cccc3oc4cccc5c4[c+](c32)c2c1cccc2n5CCC`, the fluorescence lifetime reads like this: (in CC#N) 19.4 ns; (in CO) 17.8 ns; (in ClCCl) 20.6 ns; (in OCC(O)CO) 18.3 ns.
For the molecule `C(#Cc1ccc2c(c1)c1cc(C#Cc3ccccc3)ccc1n2-c1cc2ccccc2c2ccccc12)c1ccccc1`, the fluorescence lifetime (in ClCCl) is 4.27 ns.
The molecule `CN(C)c1ccc2nc(-c3ccc(C=O)cc3)sc2c1` gave a fluorescence lifetime (in C1CCCCC1) of 2.5 ns.
In turn, `COc1ccc(-n2c(C)ccc2C)cc1` yielded a fluorescence lifetime (in CC#N) of 5 ns.
Take `OB(O)c1ccc(-c2ccc(N(c3ccccc3)c3ccccc3)cc2)cc1`: the fluorescence lifetime runs as follows: (in C1CCCCC1) 1.59 ns; (in C1CCOC1) 2.14 ns; (in CC#N) 2.24 ns; (in CCO) 2.39 ns; (in CCOC(C)=O) 2.21 ns; (in CCOCC) 1.69 ns. The same molecule returned a fluorescence lifetime (in CO) of 2.97 ns.
Where the note is “in ClCCl”, `N#Cc1ccc(-n2c(-c3ccc(-c4ccc(N(c5ccccc5)c5ccccc5)cc4)s3)nc3c4ccccc4c4ccccc4c32)c2ccccc12` came in with a fluorescence lifetime of 5.4 ns.
On to `c1ccc2c(-n3cnc4ccccc43)cccc2c1`, for which the fluorescence lifetime by setting is: (in C1CCCCC1) 5.1 ns; (in CCOC(C)=O) 4.6 ns; (in CO) 4.3 ns.
For the setting “in O=P(c1ccccc1)(c1ccccc1)c1ccc2oc3ccc(P(=O)(c4ccccc4)c4ccccc4)cc3c2c1”, `c1ccc(-c2nc(-c3ccccc3)nc(-c3cc(-n4c5ccccc5c5ncccc54)c(-n4c5ccccc5c5ncccc54)c(-n4c5ccccc5c5ncccc54)c3)n2)cc1` displayed a fluorescence lifetime of 14.5 ns.
`CC(C)(C)n1c(=O)c2cc3ccc4cccc5ccc(c2c1=O)c3c45` displayed a fluorescence lifetime (in ClC(Cl)Cl) of 4.09 ns.
`CN1CCCc2cc(C3=Cc4cccc[n+]4[B-](F)(F)O3)ccc21` returned a fluorescence lifetime (in ClC(Cl)Cl) of 3 ns.
`CN(C)c1ccc2c(-c3ccc(C(=O)[O-])cc3C(=O)[O-])c3ccc(=[N+](C)C)cc-3oc2c1`: the fluorescence lifetime by setting is: (in CCO) 3.26 ns; (in O) 2.44 ns.
Take `COc1ccc2c(c1)-c1cc(OC)ccc1C2=O`: the fluorescence lifetime by setting is: (in C1CCCCC1) 1.8 ns; (in CC#N) 15.7 ns; (in CCO) 0.8 ns.
For `Cc1c(C(=O)c2ccc3c4cccc5cccc(c6cccc2c63)c54)c2ccc3cccc4c5cccc6ccc1c(c65)c2c34`, the fluorescence lifetime (in ClCCl) was found to be 1.1 ns.
Same read-out and setting: the value for `F[B-]1(F)OC(C#Cc2ccccc2)=CC(c2ccccc2)=[O+]1` was 0.94 ns.
For `CCn1c2ccccc2c2cc(C#Cc3cc(C#Cc4ccc5c(c4)c4ccccc4n5CC)ncn3)ccc21`, under “in C1CCOC1”, the fluorescence lifetime stood at 2.32 ns.
`CC(C)(C)OC(=O)NC(Cc1ccc2oc(-c3ccccn3)nc2c1)C(=O)O` (stereo not given): the fluorescence lifetime stood at 2.9 ns (in CC1CCCCC1), 1.92 ns (in CC#N) and 1.19 ns (in CO).
Regarding `c1ccc(-c2nn(-c3ccccc3)c3nc4ccccc4cc23)cc1`, the fluorescence lifetime came out at 17.9 ns (in C1CCCCC1); 21.2 ns (in C1CCOC1); 25.1 ns (in CC#N); 23.4 ns (in CC(C)=O); 19.7 ns (in CCCCCl); 18.6 ns (in CCCCOCCCC). This molecule also gave a fluorescence lifetime (in CN(C)C=O) of 22 ns.
As to `CN(C)c1ccc2nc3c(cc2c1)c(-c1ccccc1)nn3-c1ccccc1`, the fluorescence lifetime reads like this: (in C1CCCCC1) 16.1 ns; (in C1CCOC1) 21 ns; (in CC#N) 24.5 ns; (in CC(C)=O) 23.4 ns; (in CCCCCl) 20.1 ns; (in CCCCOCCCC) 18.4 ns. For the same molecule, where the note is “in CN(C)C=O”, the fluorescence lifetime came to 22.3 ns.
For the molecule `c1ccc2c(c1)CCc1ccccc1N2c1c2ccccc2cc2ccccc12`, where the note is “in Cc1ccccc1”, the fluorescence lifetime was 41 ns.
Turning to `Cc1ccc(-c2ccc(/C=C/c3ccc(C#N)cc3)cn2)nc1`, the fluorescence lifetime (in CC#N) is 0.6 ns.
Molecule `CCN(CC)c1ccc2c(-c3ccccc3C(=O)O)c3c([o+]c2c1)/C(=C/c1nc(-c2ccccc2)n2ccccc12)CCC3` had a fluorescence lifetime (in ClCCl) of 2.97 ns.
Molecule `COc1ccc(N2c3ccc4ccccc4c3-c3c4ccccc4cc[n+]3[B-]2(c2ccccc2)c2ccccc2)cc1` returned a fluorescence lifetime (in Cc1ccccc1) of 0.25 ns.
`c1cc(N2CCCC2)ccn1` registered a fluorescence lifetime (in CC1CCCCC1) of 11 ns.
Molecule `CN(C)c1ccc(-c2cc(-c3cccs3)nc(-c3ccccc3)n2)cc1` gave a fluorescence lifetime (in ClC(Cl)Cl) of 7 ns.
`c1ccc2c(c1)cc(-c1cc(-c3nccs3)nc(-c3nccs3)c1)c1ccccc12`: the fluorescence lifetime by setting is: (in CC#N) 1.94 ns; (in CCCCCC) 5 ns; (in CO) 1.79 ns; (in ClC(Cl)Cl) 2.54 ns.
As to `CC(=O)Nc1ccc2c3c(cccc13)C(=O)c1ccccc1-2`, the fluorescence lifetime came out at 10.3 ns (in CC#N); 9.7 ns (in CC(C)=O); 9.3 ns (in CC(C)O); 1.9 ns (in CCCCOCCCC); 6.6 ns (in CCOC(C)=O); 2.6 ns (in CCOCC). Moreover, the fluorescence lifetime is 8.3 ns (in CO); 2.8 ns (in Cc1ccccc1); 5.9 ns (in Clc1ccccc1); 9.8 ns (in N#Cc1ccccc1); 8.3 ns (in O=C1CCCCC1).
In the case of `CCCCN1/C(=C\c2c(-c3ccc(N(C)C)cc3)c(=O)c2=O)C=Cc2ccccc21`, the fluorescence lifetime runs as follows: (in C1CCCCC1) 1.06 ns; (in Cc1ccccc1) 2.99 ns; (in ClCCl) 0.6 ns.
Molecule `Cc1csc2[n+]1[B-](F)(F)OC(c1ccc(N(C)C)cc1)=N2` returned a fluorescence lifetime (in C1CCOC1) of 2.24 ns.
On to `COc1cc2cc(-c3ccc(C(=O)OCOC(C)=O)cc3C(=O)OCOC(C)=O)oc2cc1N1CCOCCOCCN(c2cc3oc(-c4ccc(C(=O)OCOC(C)=O)cc4C(=O)OCOC(C)=O)cc3cc2OC)CCOCCOCC1`, for which the fluorescence lifetime (in O) turned out to be 0.52 ns.
On to `COc1ccc(-c2ccc(-c3ccc(C#N)s3)s2)cc1`, for which the fluorescence lifetime (in C1CCCCC1) was 0.23 ns; the fluorescence lifetime (in C1COCCO1) turned out to be 0.38 ns; the fluorescence lifetime (in CC#N) stood at 0.97 ns; the fluorescence lifetime (in CC(C)O) is 0.89 ns; the fluorescence lifetime (in CCCCO) was found to be 0.91 ns; the fluorescence lifetime (in CCO) was 0.93 ns. For the same molecule, the fluorescence lifetime reads like this: (in CCOC(C)=O) 0.44 ns; (in CN(C)C=O) 1.44 ns; (in CO) 1.06 ns; (in CS(C)=O) 1.76 ns; (in Cc1ccccc1) 0.34 ns; (in ClC(Cl)Cl) 0.6 ns. The same molecule displayed a fluorescence lifetime (in ClCCl) of 0.74 ns and a fluorescence lifetime (in O) of 0.91 ns.
For `CCCCCCCCCCc1cc(-c2cc(CCCCCCCCCC)c(-c3cccs3)s2)sc1-c1cccs1`, the fluorescence lifetime (in CCC(C)C) was 0.38 ns.
As for `CCn1c2ccccc2c2cc(C#Cc3cc(C#Cc4ccc5c(c4)c4ccccc4n5CC)nc(N4CCCCC4)n3)ccc21`, the fluorescence lifetime (in C1CCOC1) worked out at 2.9 ns.
As for `CN1CCN(CCCN2c3ccccc3Sc3ccc(Cl)cc32)CC1`, the fluorescence lifetime was found to be 0.91 ns (in CC#N) and 0.89 ns (in CO).
The molecule `COc1ccc2c(c1)c1cc(OC)ccc1n2-c1ccc2c(c1)-c1cc(-n3c4ccc(OC)cc4c4cc(OC)ccc43)ccc1P2(=O)c1ccccc1` registered a fluorescence lifetime (in c1ccc2c(c1)c1ccccc1n2-c1ccc(-c2ccc(-n3c4ccccc4c4ccccc43)cc2)cc1) of 16.7 ns.
Consider `O=C1c2cccc3cc4ccccc4c(c23)C(=O)N1Cc1ccccn1`, for which the fluorescence lifetime (in CCO) is 15.2 ns.
On to `Cc1cc(C)cc(NC(=O)c2sc(Br)nc2C)c1`, for which the fluorescence lifetime runs as follows: (in CO) 0.33 ns; (in ClC(Cl)Cl) 0.18 ns.
Consider `F[B-]1(F)n2c(c3cccc4cccc2c43)=Nc2ccc3ccccc3[n+]21`, for which the fluorescence lifetime (in ClCCl) stood at 6.1 ns.
As to `COc1cc(OC)c2c(c1)c1cc3oc(=O)cc(C)c3cc1c1cc(OC)cc(OC)c12`, the fluorescence lifetime (in ClC(Cl)Cl) worked out at 7.5 ns.
`COc1ccc(C2=C(c3ccc(C)cc3)C(c3ccccc3)=[N+]3C2=Nc2c(-c4ccc(OC)cc4)c(-c4ccc(C)cc4)c(-c4ccccc4)n2[B-]3(F)F)cc1` had a fluorescence lifetime (in Cc1ccccc1) of 0.23 ns.
In the case of `COc1c2ccccc2c(OC)c2c1c1c(F)cccc1n2C`, the fluorescence lifetime by setting is: (in C1CCCCC1) 23.3 ns; (in CC#N) 25.2 ns; (in CO) 24.4 ns; (in ClCCl) 21.2 ns.
Turning to `CN(C)c1ccc(C#Cc2ccc(C#Cc3ccc(C#Cc4ccccc4C#N)cc3C#N)cc2C#N)cc1`, the fluorescence lifetime stood at 1.7 ns (in C1CCOC1); 1.66 ns (in CC#N); 1.86 ns (in CN(C)C=O); 1.78 ns (in ClC(Cl)Cl); 1.74 ns (in c1ccccc1).
As for `CN(C)c1ccc(C2=Cc3ccccc3P2(=O)c2ccccc2)cc1` (stereo not given), for the setting “in ClCCl”, the fluorescence lifetime was 6.1 ns.
